Data set [1] relates to BV-2 microglial cells. The data set can be described thus: LPS-induced NO production in BV-2 microglial cells (Griess, nitrite). The class given is cell-based, murine. The note with it: LPS 100 ng/ml; for inhibition at 10 µM: Mus musculus, BV-2 microglial cells, 10 μM compound, LPS-increased NO production = 100%. How it is done: (§1) BV-2 cells, a murine microglial cell line, were cultured in Dulbecco's modified Eagle's medium (DMEM) containing 5% heat-inactivated FBS and 50 μg/ml gentamicin at 37° C. Rat microglial HAPI cells and mouse primary astrocytes were cultured in DMEM (10% FBS, 10 U/ml penicillin, 10 μg/ml streptomycin) at 37° C. All animals and experimental procedures were approved by the Institutional Review Board of Kyungpook National University School of Pharmacy and were carried out in accordance with the NIH Guide for the Care and Use of Laboratory Animals. All animals were maintained under temperature- and humidity-controlled conditions.
The production of nitric oxide (NO) was estimated by measuring the amount of nitrite, which is a NO metabolite. The BV-2 cells (40,000 cells/well in 96-well plates) were treated with 100 ng/ml of LPS in the presence or absence of the compounds from the library. At the end of a 24 hour incubation period, 50 μl of the cell culture media was mixed with an equal volume of a Griess reagent in each well. The light absorbance was measured at 540 nm, while a standard curve was generated using sodium nitrite.
(§2) Specifically, the BV-2 cells were cultured in 96-well plates and stimulated with LPS at a concentration of 100 ng/ml. The BV-2 cells stimulated with LPS were treated with 3,500 low molecular weight substances (FIG. 1).
While an increased NO production by LPS is designated as 100%, a suppressed amount of NO production by each derivative of Compound 1 is presented by its respective percentage.
For orientation: The Griess reaction detects nitrite, a stable product of nitric oxide.

For data set [2], the system named is HAPI rat microglial cells. The data set can be described thus: LPS-induced NO release in HAPI cells. Particulars: various concentrations, 24 hours. The class given is cell-based. How it is done:
as §1
(§3) The present inventors confirmed the anti-neuroinflammatory effect of Compound 1, which was identified in Example 1, in the HAPI rat microglial cells and the RAW264.7 macrophage cells. The cells were cultured in 96-well plates, followed by treatment with various concentrations of Compound 1 with LPS, respectively. After 24 hours of such a treatment, NO release was examined.

A short description of data set [3]: Brain distribution and half-life after intraperitoneal administration. Format: in vivo. The note with it: 2 mg/kg, previous study by the inventors.
Another data set deals with BV-2 cells. The data set can be described thus: Cell viability, MTT assay. The class given is cell-based, murine. How it is done: Cell viability was assessed using MTT assay. After treatment with LPS and the compounds, the culture solution was aspirated and removed. MTT (0.5 mg/ml in PBS) was added to the cells and incubated at 37° C. for 4 hours. The resulting formazan was dissolved in DMSO. The absorbance was determined at 570 nm using a microplate reader.
as §2
(Tetrazolium dyes change colour on reduction, which living cells bring about.)

Data set [4] deals with LPS-induced mouse neuroinflammation model. The data set can be described thus: LPS-induced mouse neuroinflammation model (Iba-1 immunostaining, real-time RT-PCR of brain). Format: in vivo, C57BL/6 mice. The note with it: 72 h after LPS. On the procedure: (§4) Total RNA was extracted from microglial cells or brain tissues using TRIZOL reagent (Invitrogen, Carlsbad, Calif., USA). Reverse transcription (RT) was performed using Superscript II reverse transcriptase (Invitrogen) and Oligo (dT) primers. Traditional polymerase chain reaction (PCR) amplification was performed using specific primer sets at annealing temperature 55-60° C. for 20-30 cycles. PCR was performed using C1000 Touch Thermal Cycler. For the PCR product analysis, 10 μl of each PCR reaction was electrophoresed on 1% agarose gel and detected under ultraviolet light.
(§5) Real-time RT-PCR was performed using Perfect Real-Time One Step SYBR Primer Script RT-PCR Kit (Takara Bio, Otsu, Shiga, Japan).
LPS was intraperitoneally administered according to a conventionally known method for producing neuroinflammatory mouse model. All experiments were performed on C57BL/6 mice aged 9-11 weeks, and the animals were supplied from Koatech. In each experiment, the animals were divided into four groups (Group 1, vehicle-treated group; Group 2, Compound 1-treated group; Group 3, LPS & vehicle-treated group; Group 4, LPS & Compound 1-treated group). Compound 1 (2 mg/kg) was dissolved in saline containing 5% DMSO and 40% polyethylene glycol and administered intraperitoneally daily for 4 days. LPS (5 mg/kg) induced a neuroinflammatory animal model by intraperitoneally administering its single dose on the second day.
For histological analysis, 72 hours after the administration of LPS, the animals were anesthetized and perfused transcardially first with saline and then with 4% paraformaldehyde. The activity of microglial cells was evaluated using Iba-1 staining. At least three animals were included in each experimental group. […]
The mice were then sacrificed, and the Iba-1 levels were analyzed as molecular markers of microglia activation (FIG. 6B).
The Iba-1-stained cells whose intensity values were above an arbitrarily defined threshold were counted from each of three brain regions, including the cortex, hippocampus, and substantia nigra.
(In general: In qPCR the cycle at which signal appears reflects the starting amount.)

Data set [5] concerns RAW264.7 macrophage cells. The data set can be described thus: LPS-induced NO release in RAW264.7 cells. The class given is cell-based. The note with it: various concentrations, 24 hours. How it is done:
as §3

The subject of data set [6] is BV-2 microglial cells. Put plainly: RT-PCR of LPS-induced pro-inflammatory gene expression in BV-2 cells. The class given is cell-based, murine. Particulars: pre-treatment. On the procedure: as §4, §5
The primer sequences were designed based on published cDNA sequences (See Table 1).
Next, the effect of Compound 1 on the LPS-induced expression of pro-inflammatory mediators was examined in the BV-2 microglial cells.

The test system of the next data set is astrocytes. Put plainly: NO, TNF-α production and Ym-1 expression in astrocytes. Format: cell-based, mouse. On the procedure: as §1
The mouse primary microglial cells were cultured under mild conditions according to known methods. In brief, the forebrains of 3-5 day-old C57BL/6 mice were harvested and mechanically pulverized using a nylon mesh. The cells were seeded onto a poly-L-lysine-coated flasks and then cultured. After in vitro culture of 10-14 days, the microglial cells were isolated from the mixed glial cultures by shaking for 6 hours at 200 rpm. Astrocytes remained attached to the bottom of the culture flask were used for the following experiments. 3. High Throughput Screening
The production of nitric oxide (NO) was estimated by measuring the amount of nitrite, which is a NO metabolite. The BV-2 cells (40,000 cells/well in 96-well plates) were treated with 100 ng/ml of LPS in the presence or absence of the compounds from the library. […] The light absorbance was measured at 540 nm, while a standard curve was generated using sodium nitrite.
The BV-2 cells or astrocytes were treated with LPS and Compound 1, followed by culturing for 24 hours. The TNF-α levels in the culture media were measured using a rat monoclonal anti-mouse TNF-α antibody as a primary antibody and a goat anti-mouse TNF-α antibody as a secondary antibody.
Total RNA was extracted from microglial cells or brain tissues using TRIZOL reagent (Invitrogen, Carlsbad, Calif., USA). […] For the PCR product analysis, 10 μl of each PCR reaction was electrophoresed on 1% agarose gel and detected under ultraviolet light. […]

The mark [7] stands for this setting: 2 mg/kg i.p., LPS 5 mg/kg, real-time RT-PCR.

Each structure is given as a SMILES string. “Also recorded” adds a separate entry of the source.

Results on 11 compounds are retold here after patent US10238635B2, “N-carbamoylated urethane for treating a neuroinflammatory disease” (Kyungpook National University Industry—Academic Cooperation …, priority 2016, dated 2019).

`CCC(OC(=O)N(Cc1ccccc1)C(=O)Nc1ccc(OC)c(OC)c1)c1cc(-c2ccc(OC(C)(C)C(=O)O)cc2)no1` (centres unmarked) [3,4-dimethoxy, 2-(4-(5-(1-((benzyl((3,4-dimethoxymethylphenyl)carbamoyl)carbamoyl)oxy)propyl)isoxazol-3-yl)phenoxy)-2-methylpropanoic acid]: in the data set on BV-2 microglial cells [1], the inhibition (commonly the change of the read-out against control, counted positive when it falls) at 10 µM was 60.7%.
In the case of `CCC(OC(=O)N(Cc1ccccc1)C(=O)Nc1ccc2c(c1)OCO2)c1cc(-c2ccc(OC(C)(C)C(=O)O)cc2)no1` (centres unmarked) [3,4-methylenedioxy], the inhibition at 10 µM in the data set with BV-2 microglial cells [1] amounted to 74.6%.
On the same count and under the same terms, the value for `CCC(OC(=O)N(Cc1ccccc1)C(=O)Nc1cc(OC)cc(OC)c1)c1cc(-c2ccc(OC(C)(C)C(=O)O)cc2)no1` (centres unmarked) [3,5-dimethoxy] was 56.7%.
Take `CCC(OC(=O)N(Cc1ccccc1)C(=O)Nc1ccc(C(F)(F)F)cc1)c1cc(-c2ccc(OC(C)(C)C(=O)O)cc2)no1` (centres unmarked) [4-trifluoromethyl, 2-(4-(5-(1-((benzyl((4-trifluoromethylphenyl)carbamoyl)carbamoyl)oxy)propyl)isoxazol-3-yl)phenoxy)-2-methylpropanoic acid]: in the data set on BV-2 microglial cells [1], the inhibition at 10 µM is 52.7%.
As for `CCC(OC(=O)N(Cc1ccccc1)C(=O)Nc1ccccc1)c1cc(-c2ccc(OC(C)(C)C(=O)O)cc2)no1` (centres unmarked) [Compound 1, 2-(4-(5-(1-((benzyl(phenylcarbamoyl)carbamoyl)oxy)propyl)isoxazol-3-yl)phenoxy)-2-methylpropanoic acid], the “LPS-induced NO release” value in data set [2] was “inhibits the LPS-induced NO release in the microglial and macrophage cells in a dose-dependent manner”. The brain distribution in data set [3] amounted to 0.19 µg/h/mL. Further, the half-life – broadly, how long it takes for the measured level to halve – in data set [3] (brain, ip) is 5.23 h. Also, in the data set on BV-2 cells, the cytotoxicity entry is “low in cytotoxicity”. For the same compound, the “inhibition of NO production in microglial cells (high-throughput screening)” value in the data set with BV-2 microglial cells [1] (BV-2 cells) is recorded as “effectively inhibiting NO production”. For the same compound, the inhibition at 10 µM with BV-2 microglial cells [1] is 73.4%. For the same compound, the “LPS-induced microglial activation (Iba-1 positive cells)” value in data set [4] (2 mg/kg i.p. daily for 4 days, LPS 5 mg/kg i.p., cortex, hippocampus, substantia nigra) was “significantly reduced; also recorded: effectively blocked”. Further, in data set [4] (setting [7]), the “expression level of IL-1β mRNA in brain” value is reported as “significantly diminished” and the “expression level of TNF-α mRNA in brain” value is “significantly diminished”. The “LPS-induced NO release” value in data set [5] is “inhibits the LPS-induced NO release in the microglial and macrophage cells in a dose-dependent manner”. For the same compound, in the data set on BV-2 microglial cells [6], the “expression of IL-1β gene” value was “significantly reduced”, the “expression of TNF-α gene” value was “significantly reduced” and the “expression of iNOS gene” value was “significantly reduced”. The “IL-4-induced Ym-1 expression in astrocytes” value in the data set with astrocytes (IL-4) is listed as “increasing”. Further, in the data set on astrocytes (LPS), the “LPS-induced NO production in astrocytes” value is recorded as “inhibited” and the “LPS-induced TNF-α production in astrocytes” value is “inhibited”.
Take `CCC(OC(=O)N(Cc1ccccc1)C(=O)Nc1ccccc1OC)c1cc(-c2ccc(OC(C)(C)C(=O)O)cc2)no1` (centres unmarked) [Compound 2-methoxy, 2-(4-(5-(1-((benzyl((2-methoxyphenyl)carbamoyl)carbamoyl)oxy)propyl)isoxazol-3-yl)phenoxy)-2-methylpropanoic acid]: 10 µM produced 20.9% inhibition with BV-2 microglial cells [1].
The same measure, in the same setting: the value for `CCC(OC(=O)N(Cc1ccccc1)C(=O)Nc1cccc(OC)c1)c1cc(-c2ccc(OC(C)(C)C(=O)O)cc2)no1` (centres unmarked) [Compound 3-methoxy, 2-(4-(5-(1-((benzyl((3-methoxyphenyl)carbamoyl)carbamoyl)oxy)propyl)isoxazol-3-yl)phenoxy)-2-methylpropanoic acid] was 25.6%.
Compound `CCC(OC(=O)N(Cc1ccccc1)C(=O)Nc1ccc(Cl)cc1)c1cc(-c2ccc(OC(C)(C)C(=O)O)cc2)no1` (centres unmarked) [Compound 4-chloro] came in with an inhibition at 10 µM in the data set with BV-2 microglial cells [1] of 67.8%.
Same read-out and setting: the value for `CCC(OC(=O)N(Cc1ccccc1)C(=O)Nc1ccc(OC)cc1)c1cc(-c2ccc(OC(C)(C)C(=O)O)cc2)no1` (centres unmarked) [Compound 4-methoxy, 2-(4-(5-(1-((benzyl((4-methoxyphenyl)carbamoyl)carbamoyl)oxy)propyl)isoxazol-3-yl)phenoxy)-2-methylpropanoic acid] was 46.7%; that for `CCC(OC(=O)N(Cc1ccccc1)C(=O)Nc1ccc(C)cc1)c1cc(-c2ccc(OC(C)(C)C(=O)O)cc2)no1` (centres unmarked) [Compound 4-methyl, 2-(4-(5-(1-((benzyl((4-methylphenyl)carbamoyl)carbamoyl)oxy)propyl)isoxazol-3-yl)phenoxy)-2-methylpropanoic acid] was 46.7%.
In the data set with BV-2 microglial cells [1], `CCCCc1ccc(NC(=O)N(Cc2ccccc2)C(=O)OC(CC)c2cc(-c3ccc(OC(C)(C)C(=O)O)cc3)no2)cc1` (centres unmarked) [Compound 4-n-butyl, 2-(4-(5-(1-((benzyl((4-n-butylmethylphenyl)carbamoyl)carbamoyl)oxy)propyl)isoxazol-3-yl)phenoxy)-2-methylpropanoic acid] showed an inhibition at 10 µM of 58.3%.
